This passage reports IC50 results from paper PMC5399792 (Nucleic Acids Research, 2017).

This assay addresses influenza B polymerase bound to a c/v hybrid promoter (Influenza B virus, UniProt Q5V8Y6). The assay is described as follows: biochemical. Also on record: species or system influenza B/Memphis/13/03.
The mark [1] stands for this setting: 0.025 mM NTPs, capped RNA primed, T ∼ 21°C, t = 10 min, read-out: IC50 (mM), c/v hybrid promoter.
Setting [2] is: 0.25 mM NTPs, capped RNA primed, T ∼ 21°C, t = 5 min, read-out: IC50 (mM), c/v hybrid promoter.

“And” between values parts separate entries of the source, which are not always exact repeats. Equal values may be shown once. Read-outs that look alike come from different tables or passages of the source.

In the case of `Nc1ncnc2c1ncn2[C@@H]1O[C@H](COP(=O)(O)OP(=O)(O)OP(=O)(O)O)[C@@H](O)[C@H]1F` [2'F-2'dATP], the IC50 is 0.04 mM under setting [1] and 0.33 mM under setting [2]. With `Nc1nc2c(ncn2[C@@H]2O[C@H](COP(=O)(O)OP(=O)(O)OP(=O)(O)O)[C@@H](O)[C@H]2F)c(=O)[nH]1` [2'F-2'dGTP], the IC50 reads like this: under setting [1], 0.04 mM; under setting [2], 0.34 mM. On to `Nc1ccn([C@@H]2O[C@H](COP(=O)(O)OP(=O)(O)OP(=O)(O)O)[C@@H](O)[C@H]2F)c(=O)n1` [2'F-2'dCTP], for which the IC50 (IC50 (mM), c/v hybrid promoter) was 0.45 mM and 1.9 mM.
